Measurements from PMC11520566, “Discovery of pyrazole-based analogs as CDK2 inhibitors with apoptotic-inducing activity: design, synthesis and molecular dynamics study” (RSC Advances, 2024).
Read-outs that look alike come from different tables or passages of the source.

Legend:
[1] = tested on: RPMI-8226; test: NCI 60 five dose assay, Leukemia; type: cell-based, human
[2] = tested on: SR; test: NCI 60 five dose assay, Leukemia; type: cell-based, human
[3] = tested on: HOP-62; test: NCI 60 five dose assay, Non-small cell lung cancer; type: cell-based, human
[4] = tested on: HOP-92; test: NCI 60 five dose assay, Non-small cell lung cancer; type: cell-based, human
[5] = tested on: SNB-19; test: NCI 60 five dose assay, CNS cancer; type: cell-based, human
[6] = tested on: U251; test: NCI 60 five dose assay, CNS cancer; type: cell-based, human
[7] = tested on: MDA-MB-435; test: NCI 60 five dose assay, Melanoma; type: cell-based, human
[8] = tested on: SK-MEL-28; test: NCI 60 five dose assay, Melanoma; type: cell-based, human
[9] = tested on: UACC-257; test: NCI 60 five dose assay, Melanoma; type: cell-based, human
[10] = tested on: UACC-62; test: NCI 60 five dose assay, Melanoma; type: cell-based, human
[11] = tested on: SK-OV-3; test: NCI 60 five dose assay, Ovarian cancer; type: cell-based, human
[12] = tested on: A498; test: NCI 60 five dose assay, Renal cancer; type: cell-based, human
[13] = tested on: ACHN; test: NCI 60 five dose assay, Renal cancer; type: cell-based, human
[14] = tested on: CAKI-1; test: NCI 60 five dose assay, Renal cancer; type: cell-based, human
[15] = tested on: SN12C; test: NCI 60 five dose assay, Renal cancer; type: cell-based, human
[16] = tested on: HS 578T; test: NCI 60 five dose assay, Breast cancer; type: cell-based, human
[17] = tested on: NCI 60 cell panel; test: NCI 60 five dose assay, subpanel and full panel means; type: cell-based, human
[18] = tested on: HCT-116 cell line; test: MTT cell viability assay; type: cell-based; conditions: Homo sapiens, read-out: IC50 (cytotoxicity, MTT)
[19] = Homo sapiens, read-out: LC50 (the source's name)

## CC(=NNc1ccc(S(N)(=O)=O)cc1)c1ccc(NN=C2C(=O)NN=C2Nc2ccccc2)cc1 [Compound 4, 4-(2-(1-(4-(2-(5-oxo-3-(phenylamino)-1,5-dihydro-4H-pyrazol-4-ylidene)hydrazinyl)phenyl)ethylidene)hydrazinyl)benzene sulfonamide]
[1]; Homo sapiens
  GI50: 3.36 µM
[1]; [19]
  CC50: > 100 µM
[1]; Log10 Concentration -4.0 Molar
  Percent Growth: -15%
[1]; Log10 Concentration -5.0 Molar
  Percent Growth: 12%
[1]; Log10 Concentration -6.0 Molar
  Percent Growth: 92%
[1]; Log10 Concentration -7.0 Molar
  Percent Growth: 101%
[1]; Log10 Concentration -8.0 Molar
  Percent Growth: 101%
[2]; Homo sapiens
  GI50: 1.74 µM
[2]; [19]
  CC50: 23.6 µM
[2]; Log10 Concentration -4.0 Molar
  Percent Growth: -87%
[2]; Log10 Concentration -5.0 Molar
  Percent Growth: -28%
[2]; Log10 Concentration -6.0 Molar
  Percent Growth: 75%
[2]; Log10 Concentration -7.0 Molar
  Percent Growth: 93%
[2]; Log10 Concentration -8.0 Molar
  Percent Growth: 85%
[3]; Homo sapiens
  GI50: 2.05 µM
[3]; [19]
  CC50: 30.3 µM
[3]; Log10 Concentration -4.0 Molar
  Percent Growth: -78%
[3]; Log10 Concentration -5.0 Molar
  Percent Growth: -24%
[3]; Log10 Concentration -6.0 Molar
  Percent Growth: 84%
[3]; Log10 Concentration -7.0 Molar
  Percent Growth: 95%
[3]; Log10 Concentration -8.0 Molar
  Percent Growth: 91%
[4]; Homo sapiens
  GI50: 1.3 µM
[4]; [19]
  CC50: 30.7 µM
[4]; Log10 Concentration -4.0 Molar
  Percent Growth: -89%
[4]; Log10 Concentration -5.0 Molar
  Percent Growth: -13%
[4]; Log10 Concentration -6.0 Molar
  Percent Growth: 58%
[4]; Log10 Concentration -7.0 Molar
  Percent Growth: 81%
[4]; Log10 Concentration -8.0 Molar
  Percent Growth: 74%
[5]; Homo sapiens
  GI50: 2.59 µM
[5]; [19]
  CC50: 29.6 µM
[5]; Log10 Concentration -4.0 Molar
  Percent Growth: -100%
[5]; Log10 Concentration -5.0 Molar
  Percent Growth: -5%
[5]; Log10 Concentration -6.0 Molar
  Percent Growth: 89%
[5]; Log10 Concentration -7.0 Molar
  Percent Growth: 94%
[5]; Log10 Concentration -8.0 Molar
  Percent Growth: 91%
[6]; Homo sapiens, U-251
  GI50: 1.88 µM
[6]; Homo sapiens, U-251, read-out: LC50 (the source's name)
  CC50: 7.51 µM
[6]; Log10 Concentration -4.0 Molar
  Percent Growth: -100%
[6]; Log10 Concentration -5.0 Molar
  Percent Growth: -71%
[6]; Log10 Concentration -6.0 Molar
  Percent Growth: 96%
[6]; Log10 Concentration -7.0 Molar
  Percent Growth: 105%
[6]; Log10 Concentration -8.0 Molar
  Percent Growth: 95%
[7]; Homo sapiens
  GI50: 2.07 µM
[7]; [19]
  CC50: 17.8 µM
[7]; Log10 Concentration -4.0 Molar
  Percent Growth: -83%
[7]; Log10 Concentration -5.0 Molar
  Percent Growth: -39%
[7]; Log10 Concentration -6.0 Molar
  Percent Growth: 91%
[7]; Log10 Concentration -7.0 Molar
  Percent Growth: 98%
[7]; Log10 Concentration -8.0 Molar
  Percent Growth: 90%
[8]; Homo sapiens
  GI50: 1.91 µM
[8]; [19]
  CC50: 6.99 µM
[8]; Log10 Concentration -4.0 Molar
  Percent Growth: -93%
[8]; Log10 Concentration -5.0 Molar
  Percent Growth: -78%
[8]; Log10 Concentration -6.0 Molar
  Percent Growth: 100%
[8]; Log10 Concentration -7.0 Molar
  Percent Growth: 109%
[8]; Log10 Concentration -8.0 Molar
  Percent Growth: 96%
[9]; Homo sapiens
  GI50: 3.97 µM
[9]; [19]
  CC50: 75.5 µM
[9]; Log10 Concentration -4.0 Molar
  Percent Growth: -59%
[9]; Log10 Concentration -5.0 Molar
  Percent Growth: 17%
[9]; Log10 Concentration -6.0 Molar
  Percent Growth: 99%
[9]; Log10 Concentration -7.0 Molar
  Percent Growth: 93%
[9]; Log10 Concentration -8.0 Molar
  Percent Growth: 89%
[10]; Homo sapiens
  GI50: 1.96 µM
[10]; [19]
  CC50: 9.6 µM
[10]; Log10 Concentration -4.0 Molar
  Percent Growth: -93%
[10]; Log10 Concentration -5.0 Molar
  Percent Growth: -53%
[10]; Log10 Concentration -6.0 Molar
  Percent Growth: 92%
[10]; Log10 Concentration -7.0 Molar
  Percent Growth: 93%
[10]; Log10 Concentration -8.0 Molar
  Percent Growth: 89%
[11]; Homo sapiens
  GI50: 2.34 µM
[11]; [19]
  CC50: 23.7 µM
[11]; Log10 Concentration -4.0 Molar
  Percent Growth: -98%
[11]; Log10 Concentration -5.0 Molar
  Percent Growth: -21%
[11]; Log10 Concentration -6.0 Molar
  Percent Growth: 92%
[11]; Log10 Concentration -7.0 Molar
  Percent Growth: 102%
[11]; Log10 Concentration -8.0 Molar
  Percent Growth: 89%
[12]; Homo sapiens
  GI50: 11.4 µM
[12]; [19]
  CC50: 94.7 µM
[12]; Log10 Concentration -4.0 Molar
  Percent Growth: -53%
[12]; Log10 Concentration -5.0 Molar
  Percent Growth: 56%
[12]; Log10 Concentration -6.0 Molar
  Percent Growth: 87%
[12]; Log10 Concentration -7.0 Molar
  Percent Growth: 87%
[12]; Log10 Concentration -8.0 Molar
  Percent Growth: 77%
[13]; Homo sapiens
  GI50: 5.9 µM
[13]; [19]
  CC50: 43 µM
[13]; Log10 Concentration -4.0 Molar
  Percent Growth: -100%
[13]; Log10 Concentration -5.0 Molar
  Percent Growth: 36%
[13]; Log10 Concentration -6.0 Molar
  Percent Growth: 96%
[13]; Log10 Concentration -7.0 Molar
  Percent Growth: 104%
[13]; Log10 Concentration -8.0 Molar
  Percent Growth: 94%
[14]; Homo sapiens
  GI50: 12.5 µM
[14]; [19]
  CC50: 50.1 µM
[14]; Log10 Concentration -4.0 Molar
  Percent Growth: -100%
[14]; Log10 Concentration -5.0 Molar
  Percent Growth: 66%
[14]; Log10 Concentration -6.0 Molar
  Percent Growth: 96%
[14]; Log10 Concentration -7.0 Molar
  Percent Growth: 102%
[14]; Log10 Concentration -8.0 Molar
  Percent Growth: 96%
[15]; Homo sapiens
  GI50: 2.38 µM
[15]; [19]
  CC50: 23.5 µM
[15]; Log10 Concentration -4.0 Molar
  Percent Growth: -100%
[15]; Log10 Concentration -5.0 Molar
  Percent Growth: -21%
[15]; Log10 Concentration -6.0 Molar
  Percent Growth: 93%
[15]; Log10 Concentration -7.0 Molar
  Percent Growth: 92%
[15]; Log10 Concentration -8.0 Molar
  Percent Growth: 95%
[16]; Homo sapiens
  GI50: 3.31 µM
[16]; [19]
  CC50: > 100 µM
[16]; Log10 Concentration -4.0 Molar
  Percent Growth: -28%
[16]; Log10 Concentration -5.0 Molar
  Percent Growth: 11%
[16]; Log10 Concentration -6.0 Molar
  Percent Growth: 92%
[16]; Log10 Concentration -7.0 Molar
  Percent Growth: 93%
[16]; Log10 Concentration -8.0 Molar
  Percent Growth: 85%
[17]; Colon cancer subpanel, read-out: MG-MID for GI50
  GI50: 3.33 µM
[17]; Homo sapiens, 60 cell, Breast cancer subpanel, read-out: MG-MID for GI50
  GI50: 2.36 µM
[17]; Homo sapiens, 60 cell, CNS cancer subpanel, read-out: MG-MID for GI50
  GI50: 2.39 µM
[17]; Homo sapiens, 60 cell, Colon cancer subpanel, read-out: MG-MID for GI50
  GI50: 3.33 µM
[17]; Homo sapiens, 60 cell, Leukemia subpanel, read-out: MG-MID for GI50
  GI50: 2.42 µM
[17]; Homo sapiens, 60 cell, Melanoma subpanel, read-out: MG-MID for GI50
  GI50: 2.47 µM
[17]; Homo sapiens, 60 cell, Non-small cell lung cancer subpanel, read-out: MG-MID for GI50
  GI50: 4.79 µM
[17]; Homo sapiens, 60 cell, Ovarian cancer subpanel, read-out: MG-MID for GI50
  GI50: 4.19 µM
[17]; Homo sapiens, 60 cell, Prostate cancer subpanel, read-out: MG-MID for GI50
  GI50: 3.13 µM
[17]; Homo sapiens, 60 cell, Renal cancer subpanel, read-out: MG-MID for GI50
  GI50: 9.18 µM
[17]; Homo sapiens, 60 cell, against almost the whole panel of cancer cell lines, read-out: GI50 range
  GI50: 1.1 to 5.9 µM
[17]; Homo sapiens, 60 cell, average over all cell lines, read-out: Full panel MG-MID (GI50)
  GI50: 3.81 µM
[17]; Homo sapiens, 60 cell, range over the nine subpanels, read-out: subpanel GI50 (MG-MID) range
  GI50: 2.36 to 9.17 µM
[17]; Melanoma subpanel, read-out: MG-MID for GI50
  GI50: 2.48 µM
[17]; Prostate cancer subpanel, read-out: MG-MID for GI50
  GI50: 3.14 µM
[17]; full panel MG-MID / Breast cancer subpanel MG-MID
  Selectivity index: 1.614
[17]; full panel MG-MID / CNS cancer subpanel MG-MID
  Selectivity index: 1.595
[17]; full panel MG-MID / Colon cancer subpanel MG-MID
  Selectivity index: 1.143
[17]; full panel MG-MID / Leukemia subpanel MG-MID
  Selectivity index: 1.574
[17]; full panel MG-MID / Melanoma subpanel MG-MID
  Selectivity index: 1.539
[17]; full panel MG-MID / Non-small cell lung cancer subpanel MG-MID
  Selectivity index: 0.795
[17]; full panel MG-MID / Ovarian cancer subpanel MG-MID
  Selectivity index: 0.909
[17]; full panel MG-MID / Prostate cancer subpanel MG-MID
  Selectivity index: 1.215
[17]; full panel MG-MID / Renal cancer subpanel MG-MID
  Selectivity index: 0.415
[18]
  IC50: 1.81 µM
